Counter-ions that a name gives are not always drawn. Like-named read-outs stand apart in the source and are kept apart here.
Key:
human 5-HT6 receptor = human 5-HT6 receptor (Homo sapiens (Human), UniProt P50406); experiment: radioligand binding assay (SPA format), [N-methyl-3H]-LSD; conditions: human 5-HT6 receptor membranes, 10 nM [3H]-LSD
human 5-HT6 receptor, sequence (P50406 whole entry): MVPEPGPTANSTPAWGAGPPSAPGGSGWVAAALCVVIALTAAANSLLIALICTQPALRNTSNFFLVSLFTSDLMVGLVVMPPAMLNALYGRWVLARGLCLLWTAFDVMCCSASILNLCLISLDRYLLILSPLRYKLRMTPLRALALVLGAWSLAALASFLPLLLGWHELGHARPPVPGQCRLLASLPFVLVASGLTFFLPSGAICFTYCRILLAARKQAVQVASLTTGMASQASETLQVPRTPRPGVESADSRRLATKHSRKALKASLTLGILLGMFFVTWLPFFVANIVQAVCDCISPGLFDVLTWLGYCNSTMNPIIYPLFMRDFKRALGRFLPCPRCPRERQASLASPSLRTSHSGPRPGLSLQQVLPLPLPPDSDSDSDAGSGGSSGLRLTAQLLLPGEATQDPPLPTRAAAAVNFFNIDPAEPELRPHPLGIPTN

Compound `Cn1c2c(c3cc(S(=O)(=O)c4ccc(CN)cc4)ccc31)C1CCC(C2)N1` (stereo not shown) (as salt: hydrochloride) [Example 33, 2-(4-Aminomethylphenyl)sulfonyl-5-methyl-5,6,7,8,9,10-hexahydro-7,10-epiminocyclohepta[b]indole dihydrochloride] has a melting point of 237 to 239 °C.
Compound `CN(C)Cc1ccc(S(=O)(=O)c2ccc3c(c2)c2c(n3C)CC3CCC2N3)cc1` (stereo not shown) (as salt: hydrochloride) [Example 34, 2-[4-(N,N-Dimethylaminomethyl)phenyl]sulfonyl-5-methyl-5,6,7,8,9,10-hexahydro-7,10-epiminocyclohepta[b]indole dihydrochloride] has a melting point of 244 to 246 °C.
For `Cl.Cn1c2c(c3cc(S(=O)(=O)c4ccccc4)ccc31)C1CCC(C2)N1` (stereo not shown) [Example 27, 2-Phenylsulfonyl-5-methyl-5,6,7,8,9,10-hexahydro-7,10-epiminocyclohepta[b]indole hydrochloride], the melting point was 238 to 244 °C (dec.).
`Cl.Cn1c2c(c3cc(S(=O)(=O)c4ccc(C(F)(F)F)cc4)ccc31)C1CCC(C2)N1` (stereo not shown) [Example 29, 2-(4-Trifluoromethylphenyl)sulfonyl-5-methyl-5,6,7,8,9,10-hexahydro-7,10-epiminocyclohepta[b]indole hydrochloride] showed a melting point of 200 to 205 °C.
For `Cl.Cn1c2c(c3cc(S(=O)(=O)c4cccc(OC(F)(F)F)c4)ccc31)C1CCC(C2)N1` (stereo not shown) [Example 39, 2-(3-Trifluoromethoxyphenyl)sulfonyl-5-methyl-5,6,7,8,9,10-hexahydro-7,10-epiminocyclohepta[b]indole hydrochloride], the melting point was 193 to 196 °C.
Compound `Cl.Cn1c2c(c3cc(S(=O)(=O)c4cccc(C#N)c4)ccc31)C1CCC(C2)N1` (stereo not shown) [Example 43, 2-(3-Cyanophenyl)sulfonyl-5-methyl-5,6,7,8,9,10-hexahydro-7,10-epiminocyclohepta[b]indole hydrochloride] has a melting point of 211 to 214 °C.
With `CN(C)c1cccc(S(=O)(=O)c2ccc3c(c2)c2c(n3C)CC3CCC2N3)c1.Cl` (stereo not shown) [Example 45, 2-[(3-N,N-Dimethylamino)phenyl]sulfonyl-5-methyl-5,6,7,8,9,10-hexahydro-7,10-epiminocyclohepta[b]indole hydrochloride] the melting point was 204 to 208 °C (dec.).
Work on `Cl.Cn1c2c(c3cc(S(=O)(=O)c4cccc(NC5CCCC5)c4)ccc31)C1CCC(C2)N1` (stereo not shown) [Example 48, 2-[(3-N-Cyclopentylamino)phenyl]sulfonyl-5-methyl-5,6,7,8,9,10-hexahydro-7,10-epiminocyclohepta[b]indole hydrochloride] yielded a melting point of 211 to 217 °C.
Work on `Cl.Cn1c2c(c3cc(S(=O)(=O)c4ccc5ccccc5c4)ccc31)C1CCC(C2)N1` (stereo not shown) [Example 50, 2-(2-Napthyl)sulfonyl-5-methyl-5,6,7,8,9,10-hexahydro-7,10-epiminocyclohepta[b]indole hydrochloride] yielded a melting point of 220 to 222 °C.
Work on `Cl.Cn1c2c(c3cc(S(=O)(=O)c4ccc(N)cc4)ccc31)C1CCC(C2)N1` (stereo not shown) [Example 53, 2-(4-Aminophenyl)sulfonyl-5-methyl-5,6,7,8,9,10-hexahydro-7,10-epiminocyclohepta[b]indole hydrochloride] yielded a melting point of 220 to 225 °C.
With `Cl.Cn1c2c(c3cc(S(=O)(=O)c4ccsc4)ccc31)C1CCC(C2)N1` (stereo not shown) [Example 56, 2-(3-Thienyl)sulfonyl-5-methyl-5,6,7,8,9,10-hexahydro-7,10-epiminocyclohepta[b]indole hydrochloride] the melting point was 208 to 212 °C (dec.).
In the case of `Cl.Cn1c2c(c3cc(S(=O)(=O)c4cccc(-c5ccccc5)c4)ccc31)C1CCC(C2)N1` (stereo not shown) [Example 57, 2-[(3-Phenyl)-phenyl]sulfonyl-5-methyl-5,6,7,8,9,10-hexahydro-7,10-epiminocyclohepta[b]indole hydrochloride], the melting point is reported as 230 to 235 °C (dec.).
With `Cl.Cn1c2c(c3cc(S(=O)(=O)n4ccc5cc(F)ccc54)ccc31)C1CCC(C2)N1` (stereo not shown) [Example 63, 2-[1-(5-Fluoro)-indole]sulfonyl-5-methyl-5,6,7,8,9,10-hexahydro-7,10-epiminocyclohepta[b]indole hydrochloride] the melting point was 218 to 220 °C.
In the case of `COc1ccc2c(ccn2S(=O)(=O)c2ccc3c(c2)c2c(n3C)CC3CCC2N3)c1.Cl` (stereo not shown) [Example 66, 2-[1-(5-Methoxy)-indole]sulfonyl-5-methyl-5,6,7,8,9,10-hexahydro-7,10-epiminocyclohepta[b]indole hydrochloride], the melting point is reported as 206 to 209 °C.
With `Cc1cc(S(=O)(=O)c2cccc(F)c2)cc2c3c(n(C)c12)CC1CCC3N1.Cl` (stereo not shown) [Example 72, 2-(3-Fluorophenyl)sulfonyl-4,5-dimethyl-5,6,7,8,9,10-hexahydro-7,10-epiminocyclohepta[b]indole hydrochloride] the melting point was 254 to 256 °C.
For `Cc1cc(S(=O)(=O)c2cccc(Cl)c2)cc2c3c(n(C)c12)CC1CCC3N1.Cl` (stereo not shown) [Example 73, 2-(3-Chloro-phenyl)sulfonyl-4,5-dimethyl-5,6,7,8,9,10-hexahydro-7,10-epiminocyclohepta[b]indole hydrochloride], the melting point was 227 to 229 °C.
Compound `Cc1cccc(S(=O)(=O)c2cc(C)c3c(c2)c2c(n3C)CC3CCC2N3)c1.Cl` (stereo not shown) [Example 74, 2-(3-Methyl-phenyl)sulfonyl-4,5-dimethyl-5,6,7,8,9,10-hexahydro-7,10-epiminocyclohepta[b]indole hydrochloride] has a melting point of 228 to 230 °C.
Compound `Cc1cc(S(=O)(=O)n2ccc3ccccc32)cc2c3c(n(C)c12)CC1CCC3N1.Cl` (stereo not shown) [Example 79, 2-[1-Indolesulfonyl]-4,5-dimethyl-5,6,7,8,9,10-hexahydro-7,10-epiminocyclohepta[b]indole] has a melting point of 225 to 228 °C.
With `COc1cc(S(=O)(=O)c2ccccc2)cc2c3c(n(C)c12)CC1CCC3N1.Cl` (stereo not shown) [Example 83, 2-Phenylsulfonyl-4-methoxy-5-methyl-5,6,7,8,9,10-hexahydro-7,10-epiminocyclohepta[b]indole hydrochloride] the melting point was 175 to 177 °C.
`CC(C)Oc1cc(S(=O)(=O)c2ccccc2)cc2c3c(n(C)c12)CC1CCC3N1.Cl` (stereo not shown) [Example 85, 2-Phenylsulfonyl-4-isopropoxy-5-methyl-5,6,7,8,9,10-hexahydro-7,10-epiminocyclohepta[b]indole hydrochloride] gave a melting point of 187 to 189 °C.
In the case of `Cn1c2c(c3cc(S(=O)(=O)n4ccc5cc(Cl)ccc54)ccc31)C1CCC(C2)N1` (stereo not shown) [Example 196], the Ki (human 5-HT6 receptor; read-out: human 5HT6 Ki) is reported as 1.2 nM.
`Cn1c2c(c3cc(S(=O)(=O)n4ccc5ccc(C#N)cc54)ccc31)C1CCC(C2)N1` (stereo not shown) [Example 199] gave a Ki (human 5-HT6 receptor; human 5HT6 Ki) of 1.8 nM.
With `Cn1c2c(c3cc(S(=O)(=O)n4ccc5ccc(C#N)cc54)ccc31)C1CCC(C2)N1` (stereo not shown) [Example 200] the Ki (human 5-HT6 receptor; read-out: human 5HT6 Ki) was 0.75 nM.
With `Cc1cn(S(=O)(=O)c2ccc3c(c2)c2c(n3C)CC3CCC2N3)c2ccccc12` (stereo not shown) [Example 201] the Ki (human 5-HT6 receptor; read-out: human 5HT6 Ki) was 1.4 nM.
`Cc1cn(S(=O)(=O)c2ccc3c(c2)c2c(n3C)CC3CCC2N3)c2ccccc12` (stereo not shown) [Example 202] showed a Ki (human 5-HT6 receptor; read-out: human 5HT6 Ki) of 0.72 nM.
`Cn1c2c(c3cc(S(=O)(=O)c4cccc(C(F)(F)F)c4)cc(O)c31)C1CCC(C2)N1` (stereo not shown) [Example 209] gave a Ki (human 5-HT6 receptor; read-out: human 5HT6 Ki) of 0.53 nM.
In the case of `Cn1c2c(c3cc(S(=O)(=O)c4ccccc4F)cc(O)c31)C1CCC(C2)N1` (stereo not shown) [Example 210], the Ki (human 5-HT6 receptor; read-out: human 5HT6 Ki) is reported as 1 nM.
Work on `Cn1c2c(c3cc(S(=O)(=O)c4ccccc4F)cc(O)c31)C1CCC(C2)N1` (stereo not shown) [Example 211] yielded a Ki (human 5-HT6 receptor; read-out: human 5HT6 Ki) of 1.6 nM.
Compound `COc1cc(S(=O)(=O)c2cccc(OC(F)F)c2)cc2c3c(n(C)c12)CC1CCC3N1` (stereo not shown) [Example 214] has a Ki (human 5-HT6 receptor; read-out: human 5HT6 Ki) of 3 nM.
`COc1cc(S(=O)(=O)c2cccc(C(F)(F)F)c2)cc2c3c(n(C)c12)CC1CCC3N1` (stereo not shown) [Example 215] showed a Ki (human 5-HT6 receptor; human 5HT6 Ki) of 1.8 nM.
For `COc1cc(S(=O)(=O)c2cccc(C(F)(F)F)c2)cc2c3c(n(C)c12)CC1CCC3N1` (stereo not shown) [Example 216], the Ki (human 5-HT6 receptor; human 5HT6 Ki) was 0.8 nM.
Work on `COc1cc(S(=O)(=O)c2cccc(F)c2)cc2c3c(n(C)c12)CC1CCC3N1` (stereo not shown) [Example 221] yielded a Ki (human 5-HT6 receptor; read-out: human 5HT6 Ki) of 3.3 nM.
For `COc1cc(S(=O)(=O)c2cccc(F)c2)cc2c3c(n(C)c12)CC1CCC3N1` (stereo not shown) [Example 222], the Ki (human 5-HT6 receptor; read-out: human 5HT6 Ki) was 0.56 nM.
With `COc1cc(S(=O)(=O)c2cn(C)c3ccccc23)cc2c3c(n(C)c12)CC1CCC3N1` (stereo not shown) [Example 223] the Ki (human 5-HT6 receptor; read-out: human 5HT6 Ki) was 2.4 nM.
`COc1cc(S(=O)(=O)c2cn(C)c3ccccc23)cc2c3c(n(C)c12)CC1CCC3N1` (stereo not shown) [Example 224] showed a Ki (human 5-HT6 receptor; read-out: human 5HT6 Ki) of 0.99 nM.
`COc1cc(S(=O)(=O)c2cccc(Cl)c2)cc2c3c(n(C)c12)CC1CCC3N1C` (stereo not shown) [Example 225] showed a Ki (human 5-HT6 receptor; read-out: human 5HT6 Ki) of 0.53 nM.
Compound `COc1cc(S(=O)(=O)c2cccc(Cl)c2)cc2c3c(n(C)c12)CC1CCC3N1C` (stereo not shown) [Example 226] has a Ki (human 5-HT6 receptor; read-out: human 5HT6 Ki) of 1 nM.
Compound `COc1cc(S(=O)(=O)c2cncc3ccccc23)cc2c3c(n(C)c12)CC1CCC3N1` (stereo not shown) [Example 232] has a Ki (human 5-HT6 receptor; read-out: human 5HT6 Ki) of 9.6 nM.
`COc1cc(S(=O)(=O)c2cncc3ccccc23)cc2c3c(n(C)c12)CC1CCC3N1` (stereo not shown) [Example 233] gave a Ki (human 5-HT6 receptor; read-out: human 5HT6 Ki) of 3.7 nM.
With `CCOc1cc(S(=O)(=O)c2ccccc2)cc2c3c(n(C)c12)CC1CCC3N1` (stereo not shown) [Example 234] the Ki (human 5-HT6 receptor; read-out: human 5HT6 Ki) was 4.9 nM.
For `CCOc1cc(S(=O)(=O)c2ccccc2)cc2c3c(n(C)c12)CC1CCC3N1` (stereo not shown) [Example 235], the Ki (human 5-HT6 receptor; read-out: human 5HT6 Ki) was 0.42 nM.
Compound `COc1cc(S(=O)(=O)n2ccc3ccccc32)cc2c3c(n(C)c12)CC1CCC3N1` (stereo not shown) [Example 240] has a Ki (human 5-HT6 receptor; read-out: human 5HT6 Ki) of 0.85 nM.
Compound `COc1cc(S(=O)(=O)n2ccc3ccccc32)cc2c3c(n(C)c12)CC1CCC3N1` (stereo not shown) [Example 241] has a Ki (human 5-HT6 receptor; read-out: human 5HT6 Ki) of 0.35 nM.
With `COc1cc(S(=O)(=O)n2ccc3ccc(C#N)cc32)cc2c3c(n(C)c12)CC1CCC3N1` (stereo not shown) [Example 242] the Ki (human 5-HT6 receptor; read-out: human 5HT6 Ki) was 2.4 nM.
With `COc1cc(S(=O)(=O)n2ccc3ccc(C#N)cc32)cc2c3c(n(C)c12)CC1CCC3N1` (stereo not shown) [Example 243] the Ki (human 5-HT6 receptor; read-out: human 5HT6 Ki) was 0.58 nM.
Work on `Cn1c2c(c3cc(S(=O)(=O)c4cccc(-n5cccn5)c4)ccc31)C1CCC(C2)N1` (stereo not shown) [Example 244] yielded a Ki (human 5-HT6 receptor; read-out: human 5HT6 Ki) of 14 nM.
In the case of `Cn1c2c(c3cc(S(=O)(=O)c4cccc(-n5cccn5)c4)ccc31)C1CCC(C2)N1` (stereo not shown) [Example 245], the Ki (human 5-HT6 receptor; read-out: human 5HT6 Ki) is reported as 9 nM.
Compound `COc1cc(S(=O)(=O)c2cccc(-n3cccn3)c2)cc2c3c(n(C)c12)CC1CCC3N1` (stereo not shown) [Example 246] has a Ki (human 5-HT6 receptor; read-out: human 5HT6 Ki) of 10 nM.
Work on `COc1cc(S(=O)(=O)c2cccc(-n3cccn3)c2)cc2c3c(n(C)c12)CC1CCC3N1` (stereo not shown) [Example 247] yielded a Ki (human 5-HT6 receptor; read-out: human 5HT6 Ki) of 1.5 nM.
